In patent US20080293785A1, “SUBSTITUTED BENZOTHIAZOLE KINASE INHIBITORS” (priority 2006, published 2008) one finds IC50 data, which are given here for 24 molecules.

Common to all, as to type: biochemical
One assay deals with T1, CDK2:Cyclin A (Homo sapiens, UniProt P24941).
T1 construct: purchased Upstate Biotech, Lake Placid, N.Y
The experiment in a line: CDK2 Screening Assay. The following applies: 10 μM ATP, biotinylated histone-H1 peptide substrate, 33P-γ-ATP FlashPlate; read-out: Kinase IC50 CDK2. The method, then: (§1) A kinase reaction mixture was prepared containing 50 mM Tris.HCl pH=8, 10 mM MgCl2, 0.1 mM Na3PO4, 1 mM DTT, 10 μM ATP, 0.025 μM biotinylated histone-H1 peptide substrate and 0.2 μCuries per well ^33P-γ-ATP (2000-3000 Ci/mmol). 70 μL of the kinase reaction mixture was dispensed into the well of a streptavidin coated FlashPlate™ (Cat. # SMP103, NEN, Boston, Mass.). Then 1 μL of test compound stock in 100% DMSO was added to the wells resulting in a final concentration of 1% DMSO in the reaction well with a 100 μL final reaction well volume.
(§2) The CDK2:Cyclin A protein was diluted in 50 mM Tris.HCl pH=8.0, 0.1% BSA at a concentration of 1 ng per μL and 30 μL (30 ng enzyme per test well) was added to each well to initiate the reaction. The reaction was incubated for one hour at 30° C. At the end of the one hour incubation, the reaction was terminated by aspirating the mixture from the plate and washing the wells twice with PBS containing 100 mM EDTA. The histone-H1 biotinylated peptide substrate became immobilized on the Flashplate™ and the incorporation of ^33P-γ-ATP was measured by reading the plate on a scintillation counter. Inhibition of the enzymatic activity of CDK2 was measured by observing a reduced amount of ^33P-γ-ATP incorporated into the immobilized peptide.
The CDK2 kinase used was complexed with cyclin A and is commercially available (Upstate Biotech, Lake Placid, N.Y.).
(§3) An IC50 listed as >0.1, >1, >10 or >100 means no observed 50% inhibition at the indicated test concentration. […] ND means the compound was not tested in the assay specified.

Another assay has as its target VEGF-R2 kinase domain (Rattus norvegicus, UniProt O08775). The experiment in a line: VEGF-R2 Screening Assay. Particulars: 10 μM ATP, biotinylated PLC1 peptide substrate, 33P-γ-ATP FlashPlate; read-out: Kinase IC50 VEGFR. The method, then:
A kinase reaction mixture was prepared containing 50 mM Tris.HCl pH=8, 10 mM MgCl2, 0.1 mM Na3PO4, 1 mM DTT, 10 μM ATP, 0.025 μM biotinylated peptide substrate and 0.8 μCuries per well ^33P-γ-ATP (2000-3000 Ci/mmol). 70 μL of the kinase reaction mixture was dispensed into the well of a streptavidin coated FlashPlate™ (Cat. # SMP103, NEN, Boston, Mass.). Then 1 μL of test compound stock in 100% DMSO was added to the wells resulting in a final concentration of 1% DMSO in the reaction well with a 100 μL final reaction well volume.
The soluble rat tyrosine kinase containing an N-terminal 6×HIS tag was diluted in 50 mM Tris.HCl pH=8.0, 0.1% BSA at a concentration of 5 ng per μL and 30 μL (150 ng enzyme per test well) was added to each well to initiate the reaction. The reaction was incubated for one hour at 30° C. At the end of the one hour incubation, the reaction was terminated by aspirating the reaction mixture from the plate and washing the wells twice with PBS containing 100 mM EDTA. The PLC1 biotinylated peptide substrate became immobilized on the Flashplate™ and the incorporation of ^33P-γ-ATP was measured by reading the plate on a scintillation counter. Inhibition of the enzymatic activity of the VEGF-R was measured by observing a reduced amount of ^33P-γ-ATP incorporated into the immobilized peptide.
The VEGF-R kinase assay was carried out using the CDK kinase assay procedure except that the enzyme was replaced with the VEGF-R2 fusion protein containing a polyhistidine tag at the N-terminus followed by amino acids 786-1343 of the rat VEGF-R2 kinase domain (GenBank Accession #U93306).
as §3

Another assay has as its target T2, CDK1:Cyclin-B (Homo sapiens, UniProt P06493).
T2 construct: purchased New England Biolabs, Beverly, Mass; 6020; host or cells: insect cells
In words: CDK1 Screening Assay. Particulars: 10 μM ATP, biotinylated histone-H1 peptide substrate, 33P-γ-ATP FlashPlate; read-out: Kinase IC50 CDK1. The method, then: as §1
as §2, with “CDK1:Cyclin-B” for “CDK2:Cyclin A”, “CDK1” for “CDK2”
The CDK1 kinase used was isolated from insect cells expressing both the human CDK1 catalytic subunit and its positive regulatory subunit cyclin B (New England Biolabs, Beverly, Mass., Cat. # 6020).
as §3

T2 sequence (P06493 whole entry): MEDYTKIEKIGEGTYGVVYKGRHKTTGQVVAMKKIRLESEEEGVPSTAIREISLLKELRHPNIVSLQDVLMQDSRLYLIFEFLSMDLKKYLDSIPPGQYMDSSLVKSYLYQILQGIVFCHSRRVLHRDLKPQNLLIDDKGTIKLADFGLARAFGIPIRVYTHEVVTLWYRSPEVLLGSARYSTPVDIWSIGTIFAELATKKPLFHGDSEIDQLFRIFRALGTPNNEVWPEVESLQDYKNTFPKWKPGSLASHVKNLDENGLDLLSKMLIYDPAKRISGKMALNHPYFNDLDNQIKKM
T2 sequence (P14635 whole entry partner): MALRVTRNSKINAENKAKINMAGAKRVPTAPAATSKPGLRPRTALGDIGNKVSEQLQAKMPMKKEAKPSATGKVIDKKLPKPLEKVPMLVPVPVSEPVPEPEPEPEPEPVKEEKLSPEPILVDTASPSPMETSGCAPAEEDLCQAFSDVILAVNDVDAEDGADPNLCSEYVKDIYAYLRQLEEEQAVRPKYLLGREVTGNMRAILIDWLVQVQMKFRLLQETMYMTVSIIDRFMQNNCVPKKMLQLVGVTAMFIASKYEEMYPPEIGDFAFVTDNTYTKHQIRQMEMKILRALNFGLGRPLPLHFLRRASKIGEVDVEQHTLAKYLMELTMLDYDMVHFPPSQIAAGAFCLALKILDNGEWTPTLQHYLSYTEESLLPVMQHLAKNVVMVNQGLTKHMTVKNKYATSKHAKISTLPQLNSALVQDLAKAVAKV
VEGF-R2 kinase domain, sequence (O08775 786-1343): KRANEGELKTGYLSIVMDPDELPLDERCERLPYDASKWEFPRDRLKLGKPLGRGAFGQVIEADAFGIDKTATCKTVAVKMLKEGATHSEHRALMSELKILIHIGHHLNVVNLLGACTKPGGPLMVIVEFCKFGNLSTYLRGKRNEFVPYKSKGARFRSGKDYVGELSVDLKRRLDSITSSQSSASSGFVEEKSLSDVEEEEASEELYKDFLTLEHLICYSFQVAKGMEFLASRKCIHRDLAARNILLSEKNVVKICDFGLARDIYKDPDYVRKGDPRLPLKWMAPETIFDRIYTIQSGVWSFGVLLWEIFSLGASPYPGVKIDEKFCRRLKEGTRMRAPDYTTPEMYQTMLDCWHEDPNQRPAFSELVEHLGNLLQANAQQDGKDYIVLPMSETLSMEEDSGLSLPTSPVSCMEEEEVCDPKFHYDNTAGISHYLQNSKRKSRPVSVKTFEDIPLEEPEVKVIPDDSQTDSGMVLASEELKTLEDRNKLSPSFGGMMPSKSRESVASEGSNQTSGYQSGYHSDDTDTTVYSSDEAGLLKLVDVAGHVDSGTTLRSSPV

As usually defined, the IC50 is the concentration that gives 50% inhibition. Regarding `O=C(Nc1cccc2sc(Nc3ccccc3)nc12)c1c(F)cc(F)cc1F` [Cpd 45, 2,4,6-trifluoro-N-(2-phenylamino-benzothiazol-4-yl)-benzamide], the IC50 is 1.66 µM at CDK2:Cyclin A, above 100 µM on VEGF-R2 kinase domain and above 10 µM at CDK1:Cyclin-B.
For `O=C(Nc1cccc2sc(Nc3ccccc3)nc12)c1cc([N+](=O)[O-])cc([N+](=O)[O-])c1` [Cpd 43, 3,5-dinitro-N-(2-phenylamino-benzothiazol-4-yl)-benzamide], in that order: above 100 µM, above 100 µM and above 100 µM.
Turning to `COc1cccc(OC)c1C(=O)Nc1cccc2sc(Nc3ccccc3)nc12` [Cpd 46, 2,6-dimethoxy-N-(2-phenylamino-benzothiazol-4-yl)-benzamide], the results for the IC50 on CDK2:Cyclin A, at VEGF-R2 kinase domain and at CDK1:Cyclin-B were 16.1 µM, above 100 µM and above 100 µM, respectively.
With `O=C(Nc1cccc2sc(Nc3ccccc3)nc12)c1ccccc1Br` [Cpd 32, 2-bromo-N-(2-phenylamino-benzothiazol-4-yl)-benzamide], the IC50 at CDK2:Cyclin A is 6.27 µM; on VEGF-R2 kinase domain, above 100 µM; on CDK1:Cyclin-B, above 100 µM.
For `O=C(Nc1cccc2sc(Nc3ccccc3)nc12)c1ccno1` [Cpd 18, isoxazole-5-carboxylic acid (2-phenylamino-benzothiazol-4-yl)-amide], the IC50 on CDK2:Cyclin A was 7.51 µM; on VEGF-R2 kinase domain, above 100 µM; on CDK1:Cyclin-B, above 100 µM.
For the molecule `O=C(Nc1cccc2sc(Nc3ccccc3)nc12)NC1CCCCC1` [Cpd 61, 1-cyclohexyl-3-(2-phenylamino-benzothiazol-4-yl)-urea], the IC50 at CDK2:Cyclin A, at VEGF-R2 kinase domain and at CDK1:Cyclin-B was above 100 µM throughout.
As to `O=C(Nc1cccc2sc(Nc3ccccc3)nc12)c1cc2c(Cl)cc(Cl)cc2[nH]1` [Cpd 59, 4,6-dichloro-1H-indole-2-carboxylic acid (2-phenylamino-benzothiazol-4-yl)-amide], the IC50 at CDK2:Cyclin A, at VEGF-R2 kinase domain and on CDK1:Cyclin-B was above 100 µM in each case.
As for `NS(=O)(=O)c1ccc(C(=O)Nc2cccc3sc(Nc4ccccc4)nc23)cc1` [Cpd 17, N-(2-phenylamino-benzothiazol-4-yl)-4-sulfamoyl-benzamide], the IC50 is 3.05 µM on CDK2:Cyclin A, above 100 µM at VEGF-R2 kinase domain and above 100 µM on CDK1:Cyclin-B.
As for `O=C(Nc1cccc2sc(Nc3ccccc3)nc12)c1cncc(Br)c1` [Cpd 24, 5-bromo-N-(2-phenylamino-benzothiazol-4-yl)-nicotinamide], the values for the IC50 at CDK2:Cyclin A, on VEGF-R2 kinase domain and at CDK1:Cyclin-B were 8.28 µM, above 100 µM and 53.3 µM, respectively.
In the case of `O=C(Nc1cccc2sc(Nc3ccccc3)nc12)C1CCCC1` [Cpd 52, cyclopentanecarboxylic acid (2-phenylamino-benzothiazol-4-yl)-amide], the IC50 at CDK2:Cyclin A was 1.37 µM; at VEGF-R2 kinase domain, above 100 µM; at CDK1:Cyclin-B, above 100 µM.
Regarding `O=C(Nc1cccc2sc(Nc3ccccc3)nc12)c1c(Cl)cc(Cl)cc1Cl` [Cpd 44, 2,4,6-trichloro-N-(2-phenylamino-benzothiazol-4-yl)-benzamide], the half-maximal inhibitory concentration (IC50) on CDK2:Cyclin A is 0.31 µM; on VEGF-R2 kinase domain, above 100 µM; at CDK1:Cyclin-B, 1.67 µM.
On to `CC(C)(C)NC(=O)Nc1cccc2sc(Nc3ccccc3)nc12` [Cpd 60, 1-tert-butyl-3-(2-phenylamino-benzothiazol-4-yl)-urea], for which the IC50 at CDK2:Cyclin A, at VEGF-R2 kinase domain and at CDK1:Cyclin-B was above 100 µM each time.
Turning to `Nc1cccc(C(=O)Nc2cccc3sc(Nc4ccccc4)nc23)c1` [Cpd 20, 3-amino-N-(2-phenylamino-benzothiazol-4-yl)-benzamide], the figures for the IC50 on CDK2:Cyclin A, at VEGF-R2 kinase domain and at CDK1:Cyclin-B were 5.28 µM, above 100 µM and above 100 µM, respectively.
For the molecule `CC(=O)N1CCC(C(=O)Nc2cccc3sc(Nc4ccccc4)nc23)CC1` [Cpd 25, 1-acetyl-piperidine-4-carboxylic acid (2-phenylamino-benzothiazol-4-yl)-amide], the values for the IC50 at CDK2:Cyclin A, on VEGF-R2 kinase domain and on CDK1:Cyclin-B were 6.22 µM, above 100 µM and 36.4 µM, respectively.
For `O=C(Nc1cccc2sc(Nc3ccccc3)nc12)c1ccncc1` [Cpd 28, N-(2-phenylamino-benzothiazol-4-yl)-isonicotinamide], in that order: 1.65 µM, above 100 µM and 12.3 µM.
As to `O=C(Nc1cccc2sc(Nc3ccccc3)nc12)C1CCCCC1` [Cpd 41, cyclohexanecarboxylic acid (2-phenylamino-benzothiazol-4-yl)-amide], the IC50 at CDK2:Cyclin A is 2.05 µM; on VEGF-R2 kinase domain it was at least 100 µM; on CDK1:Cyclin-B it was above 100 µM.
The corresponding values for `O=C(Nc1cccc2sc(Nc3ccccc3)nc12)c1ccc2ccccc2c1` [Cpd 40, naphthalene-2-carboxylic acid (2-phenylamino-benzothiazol-4-yl)-amide] are above 100 µM, above 100 µM and above 100 µM.
Take `O=C(Nc1cccc2sc(Nc3ccccc3)nc12)c1ccc(-c2ccccc2)cc1` [Cpd 34, biphenyl-4-carboxylic acid (2-phenylamino-benzothiazol-4-yl)-amide]: the IC50 is 13.6 µM at CDK2:Cyclin A, above 100 µM at VEGF-R2 kinase domain and above 100 µM at CDK1:Cyclin-B.
Take `O=C(Nc1c(Cl)cccc1Cl)Nc1cccc2sc(Nc3ccccc3)nc12` [Cpd 8, 1-(2,6-dichloro-phenyl)-3-(2-phenylamino-benzothiazol-4-yl)-urea]: the IC50 at CDK2:Cyclin A is 3.74 µM; at VEGF-R2 kinase domain it was above 100 µM; at CDK1:Cyclin-B it was 17.5 µM.
As to `O=C(Nc1cccc2sc(Nc3ccccc3)nc12)c1ccccn1` [Cpd 27, pyridine-2-carboxylic acid (2-phenylamino-benzothiazol-4-yl)-amide], the IC50 on CDK2:Cyclin A is 12 µM; on VEGF-R2 kinase domain, above 100 µM; on CDK1:Cyclin-B it was above 100 µM.
As for `CC(=O)Nc1cccc2sc(Nc3ccccc3)nc12` [Cpd 16, N-(2-phenylamino-benzothiazol-4-yl)-acetamide], the IC50 at CDK2:Cyclin A was above 10 µM; at VEGF-R2 kinase domain, above 100 µM; on CDK1:Cyclin-B, above 100 µM.
With `O=S(=O)(Nc1cccc2sc(Nc3ccccc3)nc12)c1ccccc1` [Cpd 30, N-(2-phenylamino-benzothiazol-4-yl)-benzenesulfonamide], the IC50 is 1.94 µM at CDK2:Cyclin A, above 100 µM at VEGF-R2 kinase domain and 11.3 µM at CDK1:Cyclin-B.
Regarding `O=C(Cc1cc(F)cc(F)c1)Nc1cccc2sc(Nc3ccccc3)nc12` [Cpd 23, 2-(3,5-difluoro-phenyl)-N-(2-phenylamino-benzothiazol-4-yl)-acetamide], the IC50 at CDK2:Cyclin A was 2.12 µM; at VEGF-R2 kinase domain it was above 100 µM; on CDK1:Cyclin-B, above 10 µM.
The corresponding values for `O=C(Nc1cccc2sc(Nc3ccccc3)nc12)c1cccnc1` [Cpd 36, N-(2-phenylamino-benzothiazol-4-yl)-nicotinamide] are 4.02 µM, at least 100 µM and 42.7 µM.
